How the values were obtained:
[1] = Singlet oxygen generation (DPBF); conditions: irradiated
Excerpt: Percentage of DCFH-DA-(FIG. 45E) and APF-(FIG. 45F) positive cells, as detected using flow cytometry. UV-VIS spectra of the singlet oxygen trap DPBF in the presence of the fast antibacterial motor MM 1 (FIG. 45G) or the inert slow motor ARV 3-202 (FIG. 45H). (FIG. 451) Rate of decrease of the absorption of DPBF at 410 nm, indicative of singlet oxygen generation, in the presence of MM 1 or its slow analog ARV 3-202. […] Flow cytometry data (at least 10 000 cells) was acquired in a spectral analyzer (Sony SA3800) and analyzed using FlowJo software. Results are shown as the mean of at least 3 biological replicas±standard error of the mean. Comparisons between samples were performed in GraphPad Prism 8 using a Kruskal-Wallis test for comparison between three or more samples or an unpaired t-test for comparisons between two samples. * p<0.05. not significant=n.s.

[2] = system: B. megaterium; assay: MIC, B. megaterium; assay type: cell-based, Bacillus megaterium; conditions: Priestia megaterium, 405 nm light
Experimental: The appropriate volume of an MM stock at 8 mM necessary to achieve a concentration ranging from 0.3125 to 40 μM was pipetted into a 2 mL microcentrifuge tube to which 1 mL of cell suspension prepared as previously described was added. Corresponding negative controls (DMSO only) were prepared in the same way. The mixture was gently mixed by pipetting and incubated in the dark at 30 or 37 ° C, depending on the strain, for 30 min with agitation (220 rpm). Afterward, MM- or DMSO-treated cells were dispensed in one well of a 24-well plate positioned in the center of the light beam (405 nm LED Light, Prizmatix, UHP—F-5-405) placed at the appropriate distance necessary to achieve the desired light intensity of 304 mW cm-2, 146 mW cm2 or 87 mW cm2, as measured with a handheld digital power meter console coupled to an S415C thermal power sensor head (Thorlabs, Newton, MA, USA). The temperature during irradiation was monitored using a thermocouple probe (Model SC-TT-K-30-36-PP; Omega Engineering, Inc., Stanford, CT, USA). Samples were agitated during irradiation. Dark controls were prepared as previously described except that no irradiation was provided. […]

[3] = system: C. albicans; assay: In vivo G. mellonella model, C. albicans infection (survival, fungal burden); design: species or system Galleria mellonella; conditions: C. albicans-infected G. mellonella, 1×MIC
Experimental: The in vivo antifungal activity of MMs was assessed in G. mellonella (Li et al., 2013; (Slater et al., 2011). G. mellonella were acquired from a commercial supplier (rainbowmealworms.net) in their final instar larval stage. Worms of similar size (~0.3 g), responsive to touch, and displaying no signs of melanization were selected. C. albicans (~10^5 CFU mL^−1) and A. fumigatus conidia (~104 conidia mL^−1) suspensions were prepared in PBS as previously described. The fungal inoculum (5 μL) was injected into the last left proleg of the worms with a Hamilton syringe. Thirty minutes after infection, MM and/or antifungal agents (1×MIC, Table 2) diluted in sterile water were injected similarly to the right proleg. […] After 30 min, worms in the irradiated treatment groups were transferred to 24-well plates (Corning-Costar Corp., Corning, NY, USA) and irradiated with 405-nm light (87.6 J cm^−2). Worms were incubated in sterile Petri dishes at 30 ° C in the dark. Live and dead worms were scored each day for 7 days. Melanized or unresponsive worms were considered dead.
Fungal load was assessed in a separate group of similarly treated worms 48 h after infection. Only healthy larvae (four worms per treatment group) with no melanization spots were used. […] After 48 h at 30 ° C (C. albicans) or 7 days at 28 ° C (A. fumigatus), colonies were counted to determine CFU per mg of larvae.

[4] = system: mature C. albicans biofilms; assay: Biofilm viability (XTT assay); assay type: cell-based, Candida albicans; conditions: 2×, 4×MIC, vs DMSO, MMs with 87.6 J cm^−2 405-nm light
Experimental: The antibiofilm activity of MMs was investigated using 96-well microtiter plates with flat-bottom wells as a closed static biofilm reactor. This setup is reliable, inexpensive, easy to use and obtain, and requires no additional equipment (Pierce et al., 2010). Two parameters were used to evaluate antibiofilm activity: biofilm biomass and biofilm viability. Biofilm biomass was determined using the crystal violet method (Martins et al, 2010), a simple, inexpensive, and readily accessible method for determining biofilm biomass. However, because crystal violet binds both live and dead cells as well as extracellular polymeric substances, it cannot be used alone to reliably assess antibiofilm activity. To overcome this limitation, the XTT assay was used to evaluate biofilm viability (Nett et al., 2011). […] The resulting formazan can be easily detected by measuring the absorbance at 490 nm, which is proportional to the number of living cells, providing a reliable quantitative measurement of metabolically active cells in biofilms (Taff et al., 2012). […]
Biofilm viability was determined using an XTT cell viability assay kit (Biotium, Hayward, CA, USA) per the manufacturer's instructions. […] Normalized absorbance values were obtained by subtracting the background from the signal.

## C[C@@H]1Cc2ccc3ccccc3c2/C1=C1\c2ccccc2Sc2cc(NCCN(C)C)ccc21 [MM 1, N^1N^1-dimethyl-N^2-(9-(2-methyl-2,3-dihydro-1H-cyclopenta[a]naphthalen-1-ylidene)-9H-thioxanthen-3-yl) ethane-1,2-diamine]
[1]
  singlet oxygen generation: lower than that of its slow, inert counterpart
[2]
  MIC: 0.078 µM
[3]
  time by which all worms died: ≤ 3 days
[4]
  reduction of biofilm viability: up to 96%

From patent publication US20260355318A1, “MOLECULAR MACHINES FOR TREATMENT OF CANCER, FUNGAL INFECTIONS, OR BACTERIAL INFECTIONS” (priority 2022, published 2026)
